Data published in patent publication EP0535269A1, “Pharmaceutical compositions containing thiazolidinedione derivatives” (TANABE SEIYAKU CO., LTD., priority 1991, dated 1993).

Test: Bioavailability of a solution in a water-soluble polymer: plasma levels after oral administration
Assay type: in vivo
Conditions: dogs, control formulation: untreated original drug (20 µm) with equal amount of corn starch in gelatin capsule, 100 mg/Dog, HPLC (Fig. 4)
Description: 5-[(2,4-dioxothiazolidin-5-yl)methyl]-2-[(2-naphthyl)methyl]benzoxazole (3 g) was dissolved in polyethyleneglycol (average molecule weight: approximately 380-420, trade name: Macrogol-400, Sanyo Chemical Industries Ltd.) (100 ml) to provide the preparation of the present invention. Mixture of an equal amount of untreated original drug (particle size: 20 µm) and corn starch was encapsulated in a gelatin capsule to give a formulation used as a control.
Four dogs (10 - 15 kg) were used in this experiment. The preparation of the invention was administered to dogs orally at the dose of 10 mg/Dog. In the separate experiment, the control formulation was administered at 100 mg/Dog. The blood was taken from the dogs and the concentration of the active compound (I) in the plasma sample was assayed in the same manner as described in the above. The time-course of the plasma levels of the drug was plotted.
In the figure, closed circles represent the average plasma levels of the compound (I) following the administration of the solution of the invention, and semi-closed circles represent those following the administration of untreated original drug.

O=C1NC(=O)C(Cc2ccc3oc(Cc4ccc5ccccc5c4)nc3c2)S1 (stereo not shown) [raw material, 5-[(2,4-dioxothiazolidin-5-yl)methyl]-2-[(2-naphthyl)methyl]benzoxazole]
plasma levels of the compound (I): extremely low
